Test results published in patent US20230012172A1, “COMPOSITIONS AND METHODS FOR TREATMENT OF PLATINUM-BASED CHEMOTHERAPEUTIC RESISTANT TUMORS” (The George Washington University, priority 2020, published 2023).

Experiments:
SKOV3 CR cells = test: Cell viability assay (SRB) in SKOV3 CR cells; assay type: cell-based; details: SKOV3 CR cells
Procedure: Cell culture and resistance cell line establishment. IGROV1 cells, U2OS (HTB-96; ATCC), HEK293T (CRL-11268; ATCC) and SKOV3 cells (HTB-77; ATCC) were cultured at 37° C. in DMEM with 10% Fetal Bovine Serum (FBS). PEO1 (10032308; Sigma-Aldrich), PEO4 (10032309; Sigma-Aldrich), PEO14 (10032311; […] Sigma-Aldrich) were cultured at 37° C. in RPMI-1640 with 10% FBS. OV90 (CRL-11732; […] All the cells were cultured at in a humidified incubator with 5% CO2 atmosphere. Cisplatin resistant cell lines, including SKOV3 CR, IGROV1 CR and OV90 CR, were generated using an approach similar to that reported in Zhou et al., (2018) Oncogene 37, 3981-3997, the disclosure of which is incorporated herein in its entirety. Cell viability assay. Cells were seeded at 3,000 cells/well in 96-well plates were treated with drugs, followed by incubation for 48 hours, after which cell viability was detected using Sulforhodamine B (SRB) assay (64). Absorbance at 510 nm was detected using a SpectraMax Reader (Molecular Devices) and analyzed with SoftMax Analysis Software (Molecular Devices). Combinational index (CI) values were calculated using CompuSyn software.

SENP1 [1] = target: T1, SENP1 (Homo sapiens, UniProt Q9P0U3); test: SENP1 inhibition in IGROV1 cells (SUMOylated JAK2, Western blot); assay type: cell-based; parameters: endogenous in cells; host or cells: IGROV1; details: incubated 48 hours, read-out: inhibited deSUMOylation of JAK2 with IC50
T1 sequence (Q9P0U3 1-644): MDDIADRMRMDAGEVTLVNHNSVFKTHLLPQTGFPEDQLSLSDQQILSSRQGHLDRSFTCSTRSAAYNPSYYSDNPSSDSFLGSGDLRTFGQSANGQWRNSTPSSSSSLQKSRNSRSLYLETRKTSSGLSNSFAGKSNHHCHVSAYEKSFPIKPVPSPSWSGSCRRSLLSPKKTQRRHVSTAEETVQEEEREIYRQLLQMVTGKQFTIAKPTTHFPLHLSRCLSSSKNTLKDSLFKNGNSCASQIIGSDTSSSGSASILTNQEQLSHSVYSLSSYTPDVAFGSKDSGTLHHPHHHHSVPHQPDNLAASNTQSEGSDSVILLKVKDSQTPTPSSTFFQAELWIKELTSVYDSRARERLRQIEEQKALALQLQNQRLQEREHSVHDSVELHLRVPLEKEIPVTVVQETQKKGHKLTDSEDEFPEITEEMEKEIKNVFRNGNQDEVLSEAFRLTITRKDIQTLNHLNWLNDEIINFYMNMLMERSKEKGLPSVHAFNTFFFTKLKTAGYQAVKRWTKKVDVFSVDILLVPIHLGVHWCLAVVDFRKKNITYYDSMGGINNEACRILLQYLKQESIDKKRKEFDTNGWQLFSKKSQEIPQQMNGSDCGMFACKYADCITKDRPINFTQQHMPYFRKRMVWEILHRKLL
Procedure: FIGS. 11A-11L depict images illustrating identification of a novel potent SENP1 inhibitor, UA. FIGS. 11A and 11B show Mc (FIG. 11A) and UA (FIG. 11B) inhibited SENP1 activity in vivo. IGROV1 cells were incubated with Mc or UA for 48 hours and harvested for Western blot for indicated proteins. […]. Intensity of SUMOylated JAK2 in B was measured by Quantity One software. FIGS. 11D and 11E show Mc (FIG. 11D) and UA (FIG. 11E) inhibited SENP1 activity in vitro. Recombinant His-JAK2 was SUMOylated as in FIG. 2F, followed by incubation with recombinant GST-SENP1 together with Mc or UA for 3 hours (h). […]. Intensity of SUMOylated JAK2 was measured by Quantity One software. […] SENP1 stability was analyzed using Western blot against SENP1 antibody in IGROV1 cells. […] SENP1 stability was analyzed by using Western blot against SENP1 antibody. […] Green: UA; Salmon: interface. Right panel, active residues of SENP1 for SENP1:UA complex. Green: UA; Salmon: active residues. […] Stability of SENP1-C603A was analyzed by using Western blot against SENP1 antibody
To determine the functional consequence of SENP1-JAK2 interaction, it was examined whether inhibition of SENP1 affected SUMOylation of JAK2. To this end, JAK2 was immunoprecipitated and the SUMOylation level of JAK2 was evaluated using an antibody against SUMO2/3 in SENP1 depleted cells.

SENP1 [2] = target: T1, SENP1; test: Cell free thermal shift assay with recombinant SENP1; assay type: binding; parameters: GST (N); made in house; host or cells: E. coli implied (pGEX-4T1 vector; BL21 (DE3) is stated only for pET28a-JAK2)
IGROV1 CR cells = test: IGROV1 CR xenograft in nude mice; assay type: in vivo; details: IGROV1 CR xenograft tumors
Procedure: To further evaluate the therapeutic potential of UA in combination with cisplatin in vivo, IGROV1 CR cells were subcutaneously implanted into nude mice to form platinum drug resistant ovarian tumors. The mice with these tumors were then treated with UA, cisplatin, or combination of both via intraperitoneal injection.
Animal experiments. Xenograft experiments were performed in 6-week female BALB/c athymic nude mice (Jackson Laboratory) by subcutaneously injecting 5×10^6 IGROV1 CR cells within 50% Matrigel gelatinous protein mixture (Corning). Mice were randomized to receive treatment after reached a minimum tumor volume of 150 mm^3. 4 groups of mice (5 mice per group) were treated intraperitoneally with vehicle, cisplatin (8 mg/kg/2day), UA (10 mg/kg/2 days) and combination of UA and cisplatin (10 mg/kg/2 day of UA +8 mg/kg/2 day of cisplatin) for 2 weeks. A minimum of 6 tumors per group were assessed. The tumor volume was calculated according to the formula: length×(width^2)/2.
Immunohistochemistry. Immunohistochemical (IHC) staining and scoring were performed similar to that previously described n Zhou et al., (2018) Oncogene 37, 3981-3997, the disclosure of which is incorporated herein in its entirety. The quantification of immunohistochemical staining was scored blindly at least by two independent observers.

Row | Structure (SMILES) | re-sensitization to cisplatin (SKOV3 CR cells) | synergistic effects with cisplatin (combination index) (SKOV3 CR cells) | IC50 (SENP1 [1]) [µM] | thermal stabilization of recombinant SENP1 proteins (SENP1 [2]) | expression of pSTAT3 in tumor samples (IHC) (IGROV1 CR cells)
1 | CC1(C)CC[C@]2(C(=O)O)CC[C@]3(C)C(=CC[C@@H]4[C@@]5(C)CC[C@H](O[C@@H]6O[C@H](C(=O)O)[C@@H](O)[C@H](O[C@@H]7OC[C@@H](O)[C@H](O)[C@H]7O)[C@H]6O)C(C)(C)[C@@H]5CC[C@]43C)[C@@H]2C1 [Mc, Momordin Ic] | re-sensitized | synergy | 31.8 |  | 
2 | C[C@H]1[C@H](C)CC[C@]2(C(=O)O)CC[C@]3(C)C(=CC[C@@H]4[C@@]5(C)CC[C@H](O)C(C)(C)[C@@H]5CC[C@]43C)[C@H]12 [UA, ursolic acid] |  |  | 0.24 | stabilized | suppressed
